Active and inactive are the calls of the source. The rule behind the calls is not given here.
What was measured:
PC-3 = test: Antiproliferative activity against human PC3 cells after 72 hrs by MTT assay; type: functional, cell-based; conditions: PC-3, 72 h
SMMC-7721 [1] = test: Induction of apoptosis in human SMMC7721 cells assessed as necrotic cells at 0.5 uM after 12 hrs by Annexin V-FITC/PI staining based flow cytometry (reference value: 0.8%); type: functional
SMMC-7721 [2] = test: Induction of apoptosis in human SMMC7721 cells assessed as late apoptotic cells at 0.5 uM after 12 hrs by Annexin V-FITC/PI staining based flow cytometry (reference value: 0.9%); type: functional
SMMC-7721 [3] = test: Cell cycle arrest in human SMMC7721 cells assessed as accumulation at G1 phase at 2 uM after 12 hrs by propidium iodide staining based flow cytometry (reference value: 39.51%); type: functional
SMMC-7721 [4] = test: Cell cycle arrest in human SMMC7721 cells assessed as accumulation at S phase at 4 uM after 12 hrs by propidium iodide staining based flow cytometry (reference value: 36.98%); type: functional
SMMC-7721 [5] = test: Cell cycle arrest in human SMMC7721 cells assessed as accumulation at G1 phase at 1 uM after 12 hrs by propidium iodide staining based flow cytometry (reference value: 39.51%); type: functional
SMMC-7721 [6] = test: Cell cycle arrest in human SMMC7721 cells assessed as accumulation at S phase at 1 uM after 12 hrs by propidium iodide staining based flow cytometry (reference value: 36.98%); type: functional
SMMC-7721 [7] = test: Induction of apoptosis in human SMMC7721 cells assessed as early apoptotic cells at 2 uM after 12 hrs by Annexin V-FITC/PI staining based flow cytometry (reference value: 2.8%); type: functional
SMMC-7721 [8] = test: Antiproliferative activity against human SMMC7721 cells after 72 hrs by MTT assay; type: functional, cell-based; conditions: SMMC-7721, 72 h
SMMC-7721 [9] = test: Induction of apoptosis in human SMMC7721 cells assessed as viable cells at 0.5 uM after 12 hrs by Annexin V-FITC/PI staining based flow cytometry (reference value: 95.4%); type: functional; conditions: SMMC-7721, 12 h, read-out: Activity
SMMC-7721 [10] = test: Inhibition of colony formation in human SMMC7721 cells after two weeks by crystal violet staining based assay; type: functional, cell-based
Homo sapiens [11] = species: Homo sapiens; test: Inhibition of Wnt signaling pathway in human SMMC7721 cells assessed as reduction in beta-catenin expression level up to 2 uM after 48 hrs by Western blot analysis; type: cell-based
SMMC-7721 [12] = test: Induction of apoptosis in human SMMC7721 cells assessed as viable cells at 1 uM after 12 hrs by Annexin V-FITC/PI staining based flow cytometry (reference value: 95.4%); type: functional; conditions: SMMC-7721, 12 h, read-out: Activity
SMMC-7721 [13] = test: Cell cycle arrest in human SMMC7721 cells assessed as accumulation at G2 phase at 4 uM after 12 hrs by propidium iodide staining based flow cytometry (reference value: 18.97%); type: functional
L02 = test: Cytotoxicity against human HL7702 cells up to 72 hrs by MTT assay; type: cell-based; conditions: L02, 72 h
Homo sapiens [14] = species: Homo sapiens; test: Inhibition of Wnt signaling pathway in human SMMC7721 cells assessed as reduction in Dvl2 expression level up to 2 uM after 48 hrs by Western blot analysis; type: cell-based
SMMC-7721 [15] = test: Inhibition of cell migration in human SMMC7721 cells after 24 hrs by wound healing based inverted microscopic analysis; type: functional
A549 = test: Antiproliferative activity against human A549 cells after 72 hrs by MTT assay; type: functional, cell-based; conditions: A549, 72 h
SMMC-7721 [16] = test: Induction of apoptosis in human SMMC7721 cells assessed as early apoptotic cells at 1 uM after 12 hrs by Annexin V-FITC/PI staining based flow cytometry (reference value: 2.8%); type: functional
SMMC-7721 [17] = test: Cell cycle arrest in human SMMC7721 cells assessed as accumulation at G2 phase at 1 uM after 12 hrs by propidium iodide staining based flow cytometry (reference value: 18.97%); type: functional
Homo sapiens [18] = species: Homo sapiens; test: Inhibition of Wnt signaling pathway in human SMMC7721 cells assessed as increase in GSK3beta phosphorylation level up to 2 uM after 48 hrs by Western blot analysis; type: cell-based
SMMC-7721 [19] = test: Induction of apoptosis in human SMMC7721 cells assessed as late apoptotic cells at 2 uM after 12 hrs by Annexin V-FITC/PI staining based flow cytometry (reference value: 0.9%); type: functional
SMMC-7721 [20] = test: Induction of apoptosis in human SMMC7721 cells assessed as necrotic cells at 1 uM after 12 hrs by Annexin V-FITC/PI staining based flow cytometry (reference value: 0.8%); type: functional
SMMC-7721 [21] = test: Induction of apoptosis in human SMMC7721 cells assessed as late apoptotic cells at 1 uM after 12 hrs by Annexin V-FITC/PI staining based flow cytometry (reference value: 0.9%); type: functional
SMMC-7721 [22] = test: Cell cycle arrest in human SMMC7721 cells assessed as accumulation at G1 phase at 4 uM after 12 hrs by propidium iodide staining based flow cytometry (reference value: 39.51%); type: functional
SMMC-7721 [23] = test: Inhibition of colony formation in human SMMC7721 cells assessed as colony formation efficiency at 2 uM after two weeks by crystal violet staining based assay; type: functional; parameters: scale not given: the % may be the effect or the level left
ECa-109 cell line = test: Antiproliferative activity against human ECA109 cells after 72 hrs by MTT assay; type: functional, cell-based; conditions: ECa-109, 72 h
SMMC-7721 [24] = test: Cell cycle arrest in human SMMC7721 cells assessed as accumulation at S phase at 2 uM after 12 hrs by propidium iodide staining based flow cytometry (reference value: 36.98%); type: functional
MCF7 = test: Antiproliferative activity against human MCF7 cells after 72 hrs by MTT assay; type: functional, cell-based; conditions: MCF7, 72 h
MGC-803 = test: Antiproliferative activity against human MGC803 cells after 72 hrs by MTT assay; type: functional, cell-based; conditions: MGC-803, 72 h
SMMC-7721 [25] = test: Induction of apoptosis in human SMMC7721 cells assessed as necrotic cells at 2 uM after 12 hrs by Annexin V-FITC/PI staining based flow cytometry (reference value: 0.8%); type: functional
SMMC-7721 [26] = test: Cell cycle arrest in human SMMC7721 cells assessed as accumulation at G2 phase at 2 uM after 12 hrs by propidium iodide staining based flow cytometry (reference value: 18.97%); type: functional
Homo sapiens [27] = species: Homo sapiens; test: Inhibition of Wnt signaling pathway in human SMMC7721 cells assessed as increase in APC expression level up to 2 uM after 48 hrs by Western blot analysis; type: cell-based
SMMC-7721 [28] = test: Induction of apoptosis in human SMMC7721 cells assessed as viable cells at 2 uM after 12 hrs by Annexin V-FITC/PI staining based flow cytometry (reference value: 95.4%); type: functional; conditions: SMMC-7721, 12 h, read-out: Activity
SMMC-7721 [29] = test: Induction of apoptosis in human SMMC7721 cells assessed as early apoptotic cells at 0.5 uM after 12 hrs by Annexin V-FITC/PI staining based flow cytometry (reference value: 2.8%); type: functional

Compound: C=C1C(=O)[C@]23[C@H](O)[C@H]1C[C@H](O)[C@H]2[C@]12CCCC(C)(C)[C@H]1C[C@H]3O[C@@H]2OCCCn1cc(CN2C(=O)S/C(=C/C)C2=O)nn1
- IC50 (PC-3): 5000 nM
- Activity (SMMC-7721 [1]): 1.1%
- Activity (SMMC-7721 [2]): 5.4%
- Activity (SMMC-7721 [3]): 54.97%
- Activity (SMMC-7721 [4]): 22.27%
- Activity (SMMC-7721 [5]): 45.85%
- Activity (SMMC-7721 [6]): 13.84%
- Activity (SMMC-7721 [7]): 29.2%
- IC50 (SMMC-7721 [8]): 200 nM
- viability at 0.5 µM (SMMC-7721 [9]): 86.2%
- inhibition (SMMC-7721 [10]): Dose-dependent effect
- inhibition (Homo sapiens [11]): Active
- viability at 1 µM (SMMC-7721 [12]): 79.3%
- Activity (SMMC-7721 [13]): 3.97%
- IC50 (L02): 18100 nM
- inhibition (Homo sapiens [14]): Active
- inhibition (SMMC-7721 [15]): Dose-dependent effect
- IC50 (A549): 3500 nM
- Activity (SMMC-7721 [16]): 13.7%
- Activity (SMMC-7721 [17]): 37.61%
- inhibition (Homo sapiens [18]): Active
- Activity (SMMC-7721 [19]): 2.5%
- Activity (SMMC-7721 [20]): 1.2%
- Activity (SMMC-7721 [21]): 5.8%
- Activity (SMMC-7721 [22]): 75.69%
- Activity (SMMC-7721 [23]): 5.7%
- IC50 (ECa-109 cell line): 2700 nM
- Activity (SMMC-7721 [24]): 12.93%
- IC50 (MCF7): 1500 nM
- IC50 (MGC-803): 600 nM
- Activity (SMMC-7721 [25]): 0.1%
- Activity (SMMC-7721 [26]): 26.8%
- inhibition (Homo sapiens [27]): Active
- viability at 2 µM (SMMC-7721 [28]): 68.2%
- Activity (SMMC-7721 [29]): 7.2%

Source: ChEMBL document CHEMBL4265905, “Synthesis and biological evaluation of novel Jiyuan Oridonin A-1,2,3-triazole-azole derivatives as antiproliferative agents” (Eur J Med Chem, 2018)
